Experimental data published in patent publication US10975033B2, “Methods for treating inflammation and hypertension with γ-ketoaldehyde skavengers” (Vanderbilt University, priority 2011, dated 2021).

Key:
[1] = system: carrageenin-induced paw edema; assay: Carrageenin-induced paw edema rat model; format: in vivo; details: for mean reduction in edema: 3 hrs after injection of carrageenin, FIG. 7
Excerpt: As indicated above, one embodiment of the present invention is the use of salicylamine to treat inflammation. […] The carrageenin-induced paw edema rat model has been probably the most utilized animal model to screen for potency of NSAIDs and other antiinflammatory compounds to inhibit inflammation for decades. For example, see Proc Soc Exp Biol Med 111:544 in 1962 by Winter C A et. al., entitled: “Carrageenin-induced edema of the hind paw of the rat as an assay for antiinflammatory drugs”. Importantly, it has been shown that this model is one of the most robust predictors of clinical potency of NSAIDs^54.
Our initial experiments tested the ability of a single dose of salicylamine (200 mg/kg), administered intraperitoneally, to reduce paw edema at various time points. Carrageenan (100 μl of a 1% solution in saline) was injected into the hind right footpad. Footpad volume was measured in a water displacement plethysmometer before injection of carrageenin and at 2 hr, 3 hr, and 4 hr post-carrageenin. Edema was calculated as footpad volume change (ml) as a percentage of original paw volume for each individual animal.
The efficacy an analog of salicylamine, 5-methyl-salicylamine, to inhibit carrageenin-induced paw edema was accessed at 3 hrs after injection of carrageenin at two doses, 200 and 100 mg/kg ip (FIG. 7).

NF-κB = assay: LPS-induced NF-κB expression in NF-κB reporter macrophages (luciferase reporter assay); format: cell-based; details: varying concentrations, FIG. 9
Excerpt: The effect of γ-KAs and salicylamine on induction of NF-κB was explored using a novel luciferase reporter assay to quantitatively monitor the induction of expression of NF-κB both in vitro in cells and in vivo^55; 56. NF-κB is required for maximal induction of many cytokines which are thought to be important in the generation of the acute inflammatory responses^57. Accordingly, the downstream effects of an agent that suppresses the induction of NF-κB would be a reduction in the level of inflammation. The first question we asked was does exposure of cells to γ-KAs induce the expression of NF-κB using the luciferase reporter assay mentioned above. […] The abbreviation RLU in this figure stands for Relative Light Units that were measured by luciferase assay.
Another embodiment of the present invention is treatment with varying concentrations of salicylamine (SA) would suppress lipopolysaccharide (LPS) induced expression of NF-κB in NF-κB reporter macrophages.

[2] = Pharmacokinetics of salicylamine; format: in vivo
COX enzymes = details: cited from earlier work
[3] = Reactivity of scavenger with γ-KAs relative to lysine; details: more reactive than lysine
Excerpt: Other embodiments of the present invention include the use of analogs of pyridoxamine that are less polar but retain the critical molecular structure of this molecule responsible for intercepting γ-KAs^49. One example is 2-hydroxy-benzylamine (salicylamine, SA) which is 980 times more reactive than lysine with γ-KAs.
It is important to emphasize that the use of salicylamine is one example of the present invention. Other embodiments include compounds that intercept γ-KA scavengers on various biological processes, their analogs and salt forms thereof. Different non-limiting examples of compounds of the present invention are listed below, which intercept γ-KAs with varying degrees of hydrophilicity. Additionally, to solubilize the more hydrophobic compounds, they have been converted them to an acetate salt. These react with γ-KAs in vitro at a rate more than 2 orders of magnitude greater than the potency of the reaction of γ-KAs with the ε-amine of lysine^49. […] Included are analogs, salts, and pharmaceutical compositions comprising compounds that intercept γ-KA scavengers on various biological processes.

[4] = system: cells exposed to a lethal concentration of the oxidant t-butylhydroperoxide; assay: Protection of cells against a lethal concentration of t-butylhydroperoxide (FIG. 5); format: cell-based
Excerpt: One example is shown in FIG. 5, where cells are exposed to a lethal concentration of the oxidant t-butylhydroperoxide. […] Accordingly, we suspected that the γ-KAs generated by the COX pathways would likely be very pro-inflammatory, which might explain the underlying mechanism by which NSAID's exert some their anti-inflammatory effects.

[5] = system: neutrophil cell counts in lung bronchoalveolar lavage fluid; assay: Neutrophil cell counts in lung bronchoalveolar lavage fluid of LPS-injected mice; format: in vivo; details: ip at 1 hr, 3 hrs, 5 hrs after LPS; determined 8 hrs after LPS; FIG. 11
Description: An in vivo experiment was performed to explore whether treatment with salicylamine would down regulate the activity of NF-kB in animals injected with LPS. The animals we used were mice with a luciferase NF-kB reporter gene developed by Dr. Timothy Blackwell mentioned previously. LPS was injected into mice and salicylamine was injected intraperitoneally at 1 hr, 3 hrs, and 5 hrs after the LPS injection. Lung NF-kB luciferase assay and neutrophil cell counts in lung bronchoalveolar lavage fluid (BAL) were then determined 8 hrs after the LPS injection. There was a reduction in both (a) activity of NF-kB (FIG. 10) (b) and neutrophil cell counts (FIG. 11), both of which are indicative of a pronounced anti-inflammatory effect of salicylamine treatment in these animals.

hAPO4 mice = assay: Cognitive deficits in hAPO4 mouse model of human Alzheimer's disease; format: in vivo
Excerpt: The present inventors have shown that levels of γ-KA adducts are increased in disease affected areas of whole brain tissue from patients with Alzheimer's disease. […] The present inventors accessed the ability of the γ-KA scavenger salicylamine to prevent the development of cognitive abnormalities in an animal model of human Alzheimer's disease, hAPO4 mice.

Row | plasma concentrations compared with tissue concentrations ([2]; in vivo) | half-life ([2]; plasma, read-out: half life (t1/2) in plasma) [h] | Compound | mean reduction in edema ([1]; 100 mg/kg ip) [%] | mean reduction in edema ([1]; 200 mg/kg ip) [%] | LPS induced expression of NF-κB (NF-κB) | inhibition of carrageenin-induced paw edema ([1]; single dose 200 mg/kg intraperitoneally, 2 hr, 3 hr, 4 hr post-carrageenin, FIG. 6) | persistence of decrease in paw edema after injection of carrageenin ([1]; single intraperitoneal injection, 200 mg/kg) | inhibition of COX (cyclooxygenase) enzymes (COX enzymes) | reactivity with γ-KAs relative to lysine [3] [times] | protection against cell death [4] | neutrophil cell counts in BAL [5] | prevention of development of cognitive deficits (hAPO4 mice)
1 | – | – | Cc1ccc(O)c(CN)c1 [5-methyl-salicylamine] | 29 | 60 | – | – | – | – | – | – | – | –
2 | lower than tissue concentrations | ~1 | NCc1ccccc1O [salicylamine, 2-hydroxy-benzylamine] | – | – | concentration dependent stepwise reduction | marked inhibition | at least 4 hrs | None of the compound listed below, including salicylamine, inhibit cyclooxygenase enzymes | 980 | almost completely protected against cell death | reduction | almost completely prevented
